Experimental data reported in patent publication US9622469B2, “Crosslink breakers for preservation of biological substances” (priority 2013, dated 2017).
Marks after values point to notes of the source that are not given here.

Tests used:
[1] = Cleavage of PPD (3) to benzoic acid by NHC precursors, Method B (MeCN co-solvent); type: biochemical; settings: for Benzoic acid formation from 3 (in words): Method B screen of NHC precursors; for Yield (%) of benzoic acid from cleavage of 3: MeCN/pH 7.4 phosphate buffer, 37° C., LCMS peak integration with respect to 3, background 5%
Protocol: (§1) Dicarbonyl cleavage reactions were performed using either the method described in Vasan et al., An agent cleaving glucose-derived protein crosslinks in vitro and in vivo, Nature (1996) Vol. 382, pp. 275-278 (Method A) or a modified method with MeCN as a co-solvent (Method B).
(§2) 60 mM solution of dicarbonyl substrate (45 μmol) in MeCN (0.75 ml) was added to 20 mM solution of NHC (15 μmol) in 0.15 M pH 7.4 sodium phosphate buffer (0.75 ml) and kept stirred at 37° C. At stated times, 75 μl aliquots were taken, diluted with 50% MeCN/H2O (425 μl) and analyzed by LCMS with 2,4-dihydroxyquinoline (248 μM) as an internal standard. The cleavage products were quantified by peak integration against the calibration curves.
Thus, our first goal in these studies was to assess the ability of various NHC precursors to induce the degradation of the dicarbonyl model substrate (PPD, 3). To this end, we screened the thiazolium (4-6), benzothiazolium (7), triazolium (8,9) and imidazolium (10) halide substructures shown in Table 1.

mouse RBC = assay: Storage of leukoreduced mouse blood in CPDA-1 at 4° C.: hemolysis and intact RBC count; type: cell-based; settings: CPDA-1 buffer
Protocol: FIG. 1 illustrates OCR6043-mediated prolonging of the integrity of stored RBCs. Leuko reduced mouse blood was stored under FDA-approved storage conditions (CPDA-1 buffer at 4° C.) for up to 13 days, in either OCR6043, control compound (structurally similar to OCR6043, but nonfunctional as a AGE crosslink breaker), or without any additive.
This solution was stored at 4° C. according to FDA-approved conditions for 13 days. […] The steps to collect HOD blood from mice and the addition of the FDA-approved storage buffer CPDA are described in Hendrickson et al., Transfusion of fresh murine red blood cells reverses adverse effects of older stored red blood cells, Transfusion (2011) Vol. 12, pp. 2695-2702.
We also counted the intact RBCs using a hemocytometer after 13 days of storage as also depicted in FIG. 1.

[2] = Cleavage of PPD by NHC precursors, Method A (alcoholic co-solvent); type: biochemical; settings: for Combined % Yield (PhCO2H, PhCO2Me): co-solvent MeOH
Protocol: as §1
PPD (21 μl, 156 μmol) was added to a murky solution of NHC (2 or 4, 71 μmol) in 50% MeOH/0.5 M pH 7.4 sodium phosphate buffer (3.5 ml/3.5 ml; final conc. 10 mM NHC, 22 mM PPD) and kept stirred at 37° C. Approximately 0.5 ml aliquots were taken at stated times and analyzed by HPLC. Experiments using EtOH or iPrOH as a co-solvent were done in the same manner. Concentrations of benzoic acid and benzoate esters were determined by peak integration against the calibration curves.
Having learned that ALT-711 performed best among NHCs evaluated for PPD cleavage, we sought to test its substrate scope versus its N-benzyl counterpart (4). We therefore measured product distribution and yield while varying the co-solvent used to solubilize dicarbonyl substrates. As summarized in Table 2, we first investigated the performance of alcoholic co-solvents in PPD cleavage reactions. […] Despite this, however, the product distributions differed substantially: ALT-711 (2) predominantly afforded benzoic acid (PhCO2H:PhCO2Me=3.2:1, Entry 2), whereas 4 mostly gave rise to methyl benzoate (PhCO2H:PhCO2Me=1:2.2, Entry 4). Further replacement of the co-solvent with EtOH and i-PrOH in 4-catalyzed reactions led to a decrease in the proportion of ester production, still without altering overall yield (Entries 5 and 6).

[3] = test system: HOD alloantigen on stored RBCs; assay: Immunogenicity of stored blood upon transfusion (anti-HOD IgG ELISA); type: in vivo, mouse; settings: blood stored 14 days, transfused into B6 mice, 14 days following transfusion
Protocol: Leuko-reduced mouse blood was stored under typical storage conditions for up to 14 days, in either OCR6043, control compound, or without any treatment. FIG. 2A illustrates an analysis of glucose in the serum from the stored blood was evaluated using a glucose oxidase enzymatic assay. […] FIG. 2B illustrates the AGE precursor levels on RBCs were measured using a dicarbonyl-specific fluorophore that was developed in-house. The time dependent increase in the AGE precursor levels was dampened in the presence of OCR6043. FIG. 2C illustrates mouse blood that was stored for 14 days, was evaluated for its immunogenicity upon transfusion, by testing for IgGs against an alloantigen on the RBCs (HOD=HEL-OVA-Duffy).
OCR6043 treatment decreases immunogenicity, and enhances post-transfusion recovery of stored mouse blood. Leukoreduced mouse blood was stored under typical storage conditions for up to 14 days in either OCR6043 or without any treatment. This mouse blood was evaluated for its immunogenicity upon transfusion by testing for IgGs against an alloantigen on the RBCs (HOD=HEL-OVA-Duffy).
As described herein, the stored blood has an HOD marker allowing facile detection after transfusion. We transfused […] of stored blood into B6 mice (not expressing the HOD antigen). […] The anti-HOD IgG response was evaluated using standard ELISA techniques described in Hendrickson et at.

[4] = physiological conditions; cited from earlier work
[5] = NHC-mediated cleavage of bis-alkyl diketone 14, Method B; type: biochemical; settings: LCMS, with respect to dicarbonyl
Protocol: as §2
(§3) Our efforts to investigate the scope of thiazolium salt-mediated reactions with dicarbonyls began with bis-alkyl diketone 14 (Table 3, Entry 1). This substrate is cleaved cleanly by 2, and affords acid 18 in 82% yield. NHC precursor 4, on the other hand, provides 18 in only 14% yield (Entry 2). The efficiency of dicarbonyl cleavage reactions decreases substantially in the case of benzil (15, Entry 3), which affords benzoic acid in 14% and 1% yield following exposure to 2 and 4, respectively.

[6] = NHC-mediated cleavage of benzil (15), Method B; type: biochemical; settings: LCMS, with respect to dicarbonyl
Protocol: as §2, §3

[7] = NHC-mediated reaction with α-keto aldehyde phenylglyoxal (16), Method B; type: biochemical; settings: LCMS, phenylglyoxal alone gives 25% benzoic acid
Protocol: as §2
Phenylglyoxal hydrate (16; 114 mg, 0.75 mmol, 2 eq) was added to a solution of ALT-711 (2; 100 mg, 0.37 mmol) in 50% MeCN/0.15 M pH 7.4 phosphate buffer (total vol. 37 ml) and kept stirred at room temperature for 15 mins. The reaction mixture was cooled to −20° C. to precipitate out sodium phosphate as white crystals. The supernatant was transferred, and the residue was washed with MeCN and combined with the supernatant. This yellow clear solution was concentrated at room temperature to remove MeCN and purified by HPLC (16-27MeCN over 31 min). […]
Reactions involving α-keto aldehyde derivatives 16 and 17 followed an unexpected course. Treatment of these substrates with 2 led to instantaneous, high-yield production of a diastercomeric mixture of cycloadducts (19 and 20) that decompose to complex mixtures under the reaction conditions with half-lives of approximately 3 h Structures were determined based on in-depth NMR analysis (see Supplementary Material).

Compound | Benzoic acid formation from 3 (in words) [1] | Yield (%) of benzoic acid from cleavage of 3 ([1]; Method B) | also measured
Cn1cc[n+](CC(=O)c2ccccc2)c1.[Cl-] [Compound 10] | did not produce any benzoic acid | – | –
Cn1c[n+](CC(=O)c2ccccc2)cn1.[Cl-] [drawing 14] | – | 12% | –
Cc1c(CCO)sc[n+]1Cc1ccccc1.[Cl-] [Compound 5] | substantially lower yields | – | –
Cc1c(CCO)sc[n+]1Cc1ccccc1.[Cl-] [drawing 10] | – | 14% | –
Cc1sc[n+](Cc2ccccc2)c1C | – | 20% | –
Cn1cc[n+](CC(=O)c2ccccc2)c1.[Cl-] [drawing 15] | – | 0^b % | –
Cc1sc[n+](CC(=O)c2ccccc2)c1C.[Cl-] [drawing 8] | – | 60% | –
Cn1c[n+](Cc2ccccc2)cn1.[Cl-] [drawing 13] | – | 0^b % | –
[Cl-].c1ccc(C[n+]2csc3ccccc32)cc1 [drawing 12] | – | 0^b % | –
Cn1c[n+](CC(=O)c2ccccc2)cn1.[Cl-] [MPTC, 1-methyl-4-phenacyl-triazolium chloride] | – | – | Hemolysis of stored blood (supernatant appearance) (mouse RBC; up to 13 days, 12 mM): hemolysis
O=C(C[n+]1ccsc1)c1ccccc1.[Br-] [Compound 1, N-phenacylthiazolium bromide] | – | – | Combined % Yield (PhCO2H, PhCO2Me) [2]: 39%; RBC viability / intact RBCs (hemocytometer) (mouse RBC; 13 days): higher levels of intact RBCs; Immunogenicity upon transfusion (IgG against HOD alloantigen) [3]: lower immunogenicity; Half-life of decomposition [4]: 44 min
Cc1sc[n+](Cc2ccccc2)c1C.[Cl-] [Compound 4, 3-benzyl-4,5-dimethylthiazol-3-ium chloride] | substantially lower yields | – | Combined % Yield (PhCO2H) ([1]; co-solvent MeCN, Method B, LCMS, with respect to dicarbonyl): 20%; Combined % Yield (PhCO2H, PhCO2Et) ([2]; co-solvent EtOH): 60%; Combined % Yield (PhCO2H, PhCO2Me) [2]: 62%; Combined % Yield (PhCO2H, PhCO2iPr) ([2]; co-solvent i-PrOH): 58%; % Yield of acid 18 from substrate 14 [5]: 14%; % Yield of PhCO2H from substrate 15 (benzil) [6]: 1%; % Yield of PhCO2H from substrate 16 [7]: 30^c %
Cn1c[n+](CC(=O)c2ccccc2)cn1.[Cl-] [Compound 9] | restores the reactivity to a small extent | – | –
[Cl-].c1ccc(C[n+]2csc3ccccc32)cc1 [Compound 7] | no observable levels of benzoic acid | – | –
Cn1c[n+](Cc2ccccc2)cn1.[Cl-] [Compound 8] | no observable levels of benzoic acid | – | –
